Measured values from patent US20080051387A1, “TETRAHYDROPYRIDO[3,4-D]PYRIMIDINES AND RELATED ANALOGUES” (priority 2006, published 2008).

target: T1, chimeric human H3 receptor (Homo sapiens, UniProt Q9Y5N1); assay: Chimeric human H3 receptor screening GTP binding assay (inhibition of histamine-stimulated GTP-gamma35S binding, Example 8); type: biochemical; conditions: 1 h; assay described in Example 8; symbol "!" in column headed Ki; read-out: Ki ("!": percent inhibition of agonist-induced GTP-gammaS binding to H3)
T1 construct: rat Galpha-i2 (Gnai2, rat); made in house; host or cells: Sf9 insect cells (baculovirus); P2 membranes
Procedure, shortened: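 Sf9 membranes co-expressing chimeric human H3 receptor and heterotrimeric G-protein (35 μg protein) incubated 60 min at room temperature with 4 μM compound, 1 μM histamine and 125 pM GTP-gamma35S in pH 7.4 buffer with 10 μM GDP. Filter-bound radioactivity, nonspecific (10 μM GTP-gammaS) subtracted, reported as % inhibition of histamine signal.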

T1 sequence (Q9Y5N1 with tags, fused parts or gaps): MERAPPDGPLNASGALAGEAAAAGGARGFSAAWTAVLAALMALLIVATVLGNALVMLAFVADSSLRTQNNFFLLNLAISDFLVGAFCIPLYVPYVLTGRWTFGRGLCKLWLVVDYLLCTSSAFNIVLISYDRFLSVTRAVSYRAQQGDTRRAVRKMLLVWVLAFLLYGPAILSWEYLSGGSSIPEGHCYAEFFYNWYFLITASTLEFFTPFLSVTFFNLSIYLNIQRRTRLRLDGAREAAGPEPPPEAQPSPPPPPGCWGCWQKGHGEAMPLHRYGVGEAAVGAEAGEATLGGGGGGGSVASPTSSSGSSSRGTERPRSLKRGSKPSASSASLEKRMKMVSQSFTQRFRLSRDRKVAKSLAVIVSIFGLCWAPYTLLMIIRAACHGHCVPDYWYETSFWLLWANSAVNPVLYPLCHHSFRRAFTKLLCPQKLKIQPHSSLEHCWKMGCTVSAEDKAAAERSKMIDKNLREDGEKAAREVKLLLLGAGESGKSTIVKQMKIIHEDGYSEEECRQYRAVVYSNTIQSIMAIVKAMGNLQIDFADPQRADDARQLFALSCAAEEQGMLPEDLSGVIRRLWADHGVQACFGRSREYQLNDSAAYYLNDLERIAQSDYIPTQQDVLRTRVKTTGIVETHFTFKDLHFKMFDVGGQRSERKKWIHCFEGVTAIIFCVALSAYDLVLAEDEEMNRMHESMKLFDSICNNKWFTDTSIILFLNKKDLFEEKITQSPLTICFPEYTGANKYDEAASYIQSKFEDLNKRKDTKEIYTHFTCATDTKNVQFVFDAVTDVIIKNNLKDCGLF

Inhibition at 4 µM, ≥ 90%:
O=C(c1cc(C(F)(F)F)cc(C(F)(F)F)c1)N1CCc2cnc(N3CCN(C4CCC4)CC3)nc2CC1 [Compound 402, 7-[3,5-bis(trifluoromethyl)benzoyl]-2-(4-cyclobutylpiperazin-1-yl)-6,7,8,9-tetrahydro-5H-pyrimido[4,5-d]azepine]
COc1ccc(C(=O)N2CCc3cnc(N4CCN(C5CCC5)CC4)nc3CC2)c(OC)c1OC [Compound 432, 2-(4-cyclobutylpiperazin-1-yl)-7-(2,3,4-trimethoxybenzoyl)-6,7,8,9-tetrahydro-5H-pyrimido[4,5-d]azepine]
CCn1nc(C)c(Br)c1C(=O)N1CCc2cnc(N3CCN(C4CCC4)CC3)nc2CC1 [Compound 509, 7-[(4-bromo-1-ethyl-3-methyl-1H-pyrazol-5-yl)carbonyl]-2-(4-cyclobutylpiperazin-1-yl)-6,7,8,9-tetrahydro-5H-pyrimido[4,5-d]azepine]
O=C(c1ccc(Cl)c(Cl)c1)N1CCc2cnc(N3CCN(C4CCC4)CC3)nc2CC1 [Compound 396, 2-(4-cyclobutylpiperazin-1-yl)-7-(3,4-dichlorobenzoyl)-6,7,8,9-tetrahydro-5H-pyrimido[4,5-d]azepine]
O=C(Cc1ccccc1F)N1CCc2cnc(N3CCN(C4CCC4)CC3)nc2CC1 [Compound 517, 2-(4-cyclobutylpiperazin-1-yl)-7-[(2-fluorophenyl)acetyl]-6,7,8,9-tetrahydro-5H-pyrimido[4,5-d]azepine]
CC(C)(C)c1ccc(Oc2ncccc2C(=O)N2CCc3cnc(N4CCN(C5CCC5)CC4)nc3CC2)cc1 [Compound 494, 7-{[2-(4-tert-butylphenoxy)pyridin-3-yl]carbonyl}-2-(4-cyclobutylpiperazin-1-yl)-6,7,8,9-tetrahydro-5H-pyrimido[4,5-d]azepine]
COc1cscc1C(=O)N1CCc2cnc(N3CCN(C4CCC4)CC3)nc2CC1 [Compound 456, 2-(4-cyclobutylpiperazin-1-yl)-7-[(4-methoxy-3-thienyl)carbonyl]-6,7,8,9-tetrahydro-5H-pyrimido[4,5-d]azepine]
O=C(c1cnccc1C(F)(F)F)N1CCc2cnc(N3CCN(C4CCC4)CC3)nc2CC1 [Compound 476, 2-(4-cyclobutylpiperazin-1-yl)-7-{[4-(trifluoromethyl)pyridin-3-yl]carbonyl}-6,7,8,9-tetrahydro-5H-pyrimido[4,5-d]azepine]
O=C(/C=C/c1ccc(C(F)(F)F)cc1)N1CCc2cnc(N3CCN(C4CCC4)CC3)nc2CC1 [Compound 550, 2-(4-cyclobutylpiperazin-1-yl)-7-{(2E)-3-[4-(trifluoromethyl)phenyl]prop-2-enoyl}-6,7,8,9-tetrahydro-5H-pyrimido[4,5-d]azepine]
O=C(Cc1ccc2ccccc2c1)N1CCc2cnc(N3CCN(C4CCC4)CC3)nc2CC1 [Compound 522, 2-(4-cyclobutylpiperazin-1-yl)-7-(2-naphthylacetyl)-6,7,8,9-tetrahydro-5H-pyrimido[4,5-d]azepine]
O=C(/C=C/c1ccccc1Cl)N1CCc2cnc(N3CCN(C4CCC4)CC3)nc2CC1 [Compound 579, 7-[(2E)-3-(2-chlorophenyl)prop-2-enoyl]-2-(4-cyclobutylpiperazin-1-yl)-6,7,8,9-tetrahydro-5H-pyrimido[4,5-d]azepine]
O=C(c1cc(Cl)ccc1Cl)N1CCc2cnc(N3CCN(C4CCC4)CC3)nc2CC1 [Compound 441, 2-(4-cyclobutylpiperazin-1-yl)-7-(2,5-dichlorobenzoyl)-6,7,8,9-tetrahydro-5H-pyrimido[4,5-d]azepine]

same assay, conditions: 1 h; assay of Example 8; symbol "!" in column headed Ki; read-out: percent inhibition of agonist-induced GTP-gammaS binding to H3

Inhibition at 4 µM, ≥ 90%:
O=C(COc1ccc(Cl)cc1Cl)N1CCc2cnc(N3CCN(C4CCC4)CC3)nc2CC1 [Compound 331, 2-(4-cyclobutylpiperazin-1-yl)-7-[(2,4-dichlorophenoxy)acetyl]-6,7,8,9-tetrahydro-5H-pyrimido[4,5-d]azepine]
COc1ccc(CC(=O)N2CCc3cnc(N4CCN(C5CCC5)CC4)nc3CC2)cc1OC [Compound 281, 2-(4-cyclobutylpiperazin-1-yl)-7-[(3,4-dimethoxyphenyl)acetyl]-6,7,8,9-tetrahydro-5H-pyrimido[4,5-d]azepine]
CC(C)(C)c1ccc(OCC(=O)N2CCc3cnc(N4CCN(C5CCC5)CC4)nc3CC2)cc1 [Compound 329, 7-[(4-tert-butylphenoxy)acetyl]-2-(4-cyclobutylpiperazin-1-yl)-6,7,8,9-tetrahydro-5H-pyrimido[4,5-d]azepine]
COc1ccc(C(=O)N2CCc3cnc(N4CCN(C5CCC5)CC4)nc3CC2)cc1F [Compound 371, 2-(4-cyclobutylpiperazin-1-yl)-7-(3-fluoro-4-methoxybenzoyl)-6,7,8,9-tetrahydro-5H-pyrimido[4,5-d]azepine]
O=C(Cc1ccc(Br)cc1)N1CCc2cnc(N3CCN(C4CCC4)CC3)nc2CC1 [Compound 290, 7-[(4-bromophenyl)acetyl]-2-(4-cyclobutylpiperazin-1-yl)-6,7,8,9-tetrahydro-5H-pyrimido[4,5-d]azepine]
Cc1cc(CN2CCc3cnc(N4CCN(C5CCC5)CC4)nc3CC2)n(C)n1 [Compound 241, 2-(4-cyclobutylpiperazin-1-yl)-7-[(1,3-dimethyl-1H-pyrazol-5-yl)methyl]-6,7,8,9-tetrahydro-5H-pyrimido[4,5-d]azepine]
Cc1ccc(C(=O)N2CCc3cnc(N4CCN(C5CCC5)CC4)nc3CC2)cc1C [Compound 360, 2-(4-cyclobutylpiperazin-1-yl)-7-(3,4-dimethylbenzoyl)-6,7,8,9-tetrahydro-5H-pyrimido[4,5-d]azepine]

same assay, conditions: symbol ! in Ki; test compound 4 μM, 1 μM histamine; read-out: percent inhibition of agonist-induced GTP-gammaS binding to H3

Inhibition at 4 µM, ≥ 90%:
Cc1cccc(CN2CCc3c(ncnc3N3CCN(C4CCC4)CC3)C2)c1 [Compound 69, 4-(4-cyclobutylpiperazin-1-yl)-7-(3-methylbenzyl)-5,6,7,8-tetrahydropyrido[3,4-d]pyrimidine]
Clc1ccc(CN2CCc3ncnc(N4CCN(C5CCC5)CC4)c3CC2)c(Cl)c1 [Compound 181, 4-(4-cyclobutylpiperazin-1-yl)-7-(2,4-dichlorobenzyl)-6,7,8,9-tetrahydro-5H-pyrimido[4,5-d]azepine]
O=C(c1ccco1)N1CCc2c(ncnc2N2CCN(C3CCC3)CC2)C1 [Compound 32, 4-(4-cyclobutylpiperazin-1-yl)-7-(2-furoyl)-5,6,7,8-tetrahydropyrido[3,4-d]pyrimidine]
Cc1cc(C(=O)N2CCc3c(ncnc3N3CCN(C4CCC4)CC3)C2)nn1C [Compound 39, 4-(4-cyclobutylpiperazin-1-yl)-7-[(1,5-dimethyl-1H-pyrazol-3-yl)carbonyl]-5,6,7,8-tetrahydropyrido[3,4-d]pyrimidine]
CCC(C)CN1CCc2ncnc(N3CCN(C4CCC4)CC3)c2CC1 (stereo not drawn) [Compound 167, 4-(4-cyclobutylpiperazin-1-yl)-7-(2-methylbutyl)-6,7,8,9-tetrahydro-5H-pyrimido[4,5-d]azepine]
O=C(Cc1ccccc1)N1CCc2c(ncnc2N2CCN(C3CCC3)CC2)C1 [Compound 50, 4-(4-cyclobutylpiperazin-1-yl)-7-(phenylacetyl)-5,6,7,8-tetrahydropyrido[3,4-d]pyrimidine]
Cc1ccc(CN2CCc3ncnc(N4CCN(C5CCC5)CC4)c3CC2)cc1C [Compound 172, 4-(4-cyclobutylpiperazin-1-yl)-7-(3,4-dimethylbenzyl)-6,7,8,9-tetrahydro-5H-pyrimido[4,5-d]azepine]
Cc1ccc(C(C)N2CCc3c(ncnc3N3CCN(C4CCC4)CC3)C2)cc1C (stereo not drawn) [Compound 128, 4-(4-cyclobutylpiperazin-1-yl)-7-[1-(3,4-dimethylphenyl)ethyl]-5,6,7,8-tetrahydropyrido[3,4-d]pyrimidine]
CCCCCCN1CCc2c(ncnc2N2CCN(C3CCC3)CC2)C1 [Compound 85, 4-(4-cyclobutylpiperazin-1-yl)-7-hexyl-5,6,7,8-tetrahydropyrido[3,4-d]pyrimidine]
c1nc2c(c(N3CCN(C4CCC4)CC3)n1)CCN(Cc1ccc(N3CCOCC3)nc1)C2 [Compound 76, 4-(4-cyclobutylpiperazin-1-yl)-7-[(6-morpholin-4-ylpyridin-3-yl)methyl]-5,6,7,8-tetrahydropyrido[3,4-d]pyrimidine]
CC(c1cccc(F)c1)N1CCc2c(ncnc2N2CCN(C3CCC3)CC2)C1 (stereo not drawn) [Compound 103, 4-(4-cyclobutylpiperazin-1-yl)-7-[1-(3-fluorophenyl)ethyl]-5,6,7,8-tetrahydropyrido[3,4-d]pyrimidine]
CCCCC(=O)N1CCc2c(ncnc2N2CCN(C3CCC3)CC2)C1 [Compound 44, 4-(4-cyclobutylpiperazin-1-yl)-7-pentanoyl-5,6,7,8-tetrahydropyrido[3,4-d]pyrimidine]
COC(=O)c1ccc(CN2CCc3c(ncnc3N3CCN(C4CCC4)CC3)C2)cc1 [Compound 139, methyl 4-{[4-(4-cyclobutylpiperazin-1-yl)-5,8-dihydropyrido[3,4-d]pyrimidin-7(6H)-yl]methyl}benzoate]
CC(C)CCN1CCc2c(ncnc2N2CCN(C3CCC3)CC2)C1 [Compound 82, 4-(4-cyclobutylpiperazin-1-yl)-7-(3-methylbutyl)-5,6,7,8-tetrahydropyrido[3,4-d]pyrimidine]
